# According to publication PMC12730722, “Identification and Functional Characterization of the Leg-Enriched Chemosensory Protein PxylCSP9 in Plutella xylostella (Lepidoptera: Plutellidae)” (Biology, 2025):
# Tests used:
# [1] = tested on: P. xylostella; set-up: key to behavioral effect of plant volatile on P. xylostella (attractive / repellent): Refers to plant volatiles that are attractive to P. xylostella; b: Refers to plant volatiles that are repellent to P. xylostella; conditions: cited from earlier work; for behavioral effect of plant volatile on P. xylostella (attractive / repellent): footnote marks of Table 2, ref 37,45,46,47,48 (a), ref 49,50,51 (b)
# [2] = molecular target: T1, PxylCSP9 (Plutella xylostella, UniProt A0A8S4FJE6); assay: Binding of fluorescent probe Bis-ANS to PxylCSP9 (titration, Scatchard plot); conditions: 1 μM protein, 50 mM Tris-HCl pH 7.4, probe 1 to 10 μM, read-out: dissociation constant of PxylCSP9/Bis-ANS complex
# Method: To identify the ligands that bind to PxylCSP9, we selected several typical chemical components from the host plants of P. xylostella for fluorescence competitive binding experiments. The purity of all ligands and the fluorescent probe 4,4′-dianilino-1,1′-binaphthyl-5,5′-sulfonate (Bis-ANS) was ≥95%, which was purchased from Aladdin (Shanghai, China) or Sigma-Aldrich (St. Louis, MO, USA.). All the compounds were dissolved individually in chromatography-grade methanol (Aladdin, Shanghai, China) to prepare 1 mM stock solutions. Fluorescence competitive binding assays were performed using an RF-5301 Fluorescence Spectrophotometer (Shimadzu, Kyoto, Japan) with a quartz cuvette of a 1 cm path length. The excitation and emission slit widths were both set to 5 nm. The excitation wavelength of the fluorescent probe was 365 nm, and the emission spectra were recorded from 400 to 580 nm.
# The affinity of Bis-ANS for PxylCSP9 was measured by titrating a 1 μM solution of the protein in 50 mM Tris-HCl (pH 7.4) with aliquots of 1 mM Bis-ANS stock solution to final probe concentrations ranging from 1 to 10 μM. In competitive binding assays, the ligand concentrations ranging from 0 to 10 μM were added to a solution containing PxylCSP9 (1 μM) and Bis-ANS (1 μM). […]
# [3] = tested on: P. xylostella; set-up: method as in doi:10.1111/j.1744-7917.2004.tb00178.x, doi:10.1111/jen.13144, PMID 29474734; conditions: cited from earlier work
# [4] = molecular target: T1, PxylCSP9; assay: Fluorescence competitive binding assay (Bis-ANS probe displacement)
# Method: The purity of all ligands and the fluorescent probe 4,4′-dianilino-1,1′-binaphthyl-5,5′-sulfonate (Bis-ANS) was ≥95%, which was purchased from Aladdin (Shanghai, China) or Sigma-Aldrich (St. Louis, MO, USA.). All the compounds were dissolved individually in chromatography-grade methanol (Aladdin, Shanghai, China) to prepare 1 mM stock solutions. […] The excitation and emission slit widths were both set to 5 nm. The excitation wavelength of the fluorescent probe was 365 nm, and the emission spectra were recorded from 400 to 580 nm.
# In competitive binding assays, the ligand concentrations ranging from 0 to 10 μM were added to a solution containing PxylCSP9 (1 μM) and Bis-ANS (1 μM). All data were analyzed based on the assumptions that the protein was 100% active and that binding followed a 1:1 stoichiometry (protein:ligand) at saturation. The binding curves for Bis-ANS were linearized using a Scatchard plot. The dissociation constants of the competitors were calculated from their corresponding IC50 values using the following equation: Ki = [IC50]/(1 + [Bis-ANS]/KBis-ANS), where IC50 is the ligand concentration that reduces the initial fluorescence intensity of Bis-ANS by half, [Bis-ANS] is the free concentration of Bis-ANS, and KBis-ANS is the dissociation constant of the PxylCSP9/Bis-ANS complex.
# [5] = tested on: certain lepidopteran insects; set-up: method as in PMID 40195004, doi:10.1023/A:1020990018111, doi:10.1023/A:1020750029362; conditions: cited from earlier work
# T1 sequence (A0A8S4FJE6 entry or part of it): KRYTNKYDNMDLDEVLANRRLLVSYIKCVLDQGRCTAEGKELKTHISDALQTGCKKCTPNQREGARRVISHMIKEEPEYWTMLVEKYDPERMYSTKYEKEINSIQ
structure (smiles),measurement,setting,value
CCCCCCCCC=O [1-Nonanal],behavioral effect of plant volatile on P. xylostella (attractive / repellent),[1],1-Nonanal ^a
"CCCC(C)CC(C)C (centres unmarked) [2,4-Dimethylheptane]",behavioral effect of plant volatile on P. xylostella (attractive / repellent),[1],"2,4-Dimethylheptane ^b"
CCCCCCCC(C)C [2-Methylnonane],behavioral effect of plant volatile on P. xylostella (attractive / repellent),[1],2-Methylnonane ^b
CCC/C=C/C=O [(E)-2-Hexenal],behavioral effect of plant volatile on P. xylostella (attractive / repellent),[1],(E)-2-Hexenal ^a
C=C(C)[C@@H]1CC=C(C)C(=O)C1 [(R)-(-)-Carvone],behavioral effect of plant volatile on P. xylostella (attractive / repellent),[1],(R)-(-)-Carvone ^b
C=CCN=C=S [Allyl isothiocyanate],feeding and oviposition behaviors in P. xylostella,[1],induce feeding and oviposition behaviors
"O=S(=O)(O)c1cccc2c(-c3ccc(Nc4ccccc4)c4c(S(=O)(=O)O)cccc34)ccc(Nc3ccccc3)c12 [Bis-ANS, 4,4′-dianilino-1,1′-binaphthyl-5,5′-sulfonate]",Kd,[2],4.86 ± 0.04 µM
C=C(C)C1CC=C(C)CC1 (centres unmarked) [Limonene],behavioral avoidance response of P. xylostella,[1],significantly induce its behavioral avoidance response
same,oviposition deterrent effects,[1],oviposition deterrent effects
same,behavioral effect of plant volatile on P. xylostella (attractive / repellent),[1],Limonene ^b
same,EAG response of P. xylostella,[3],effectively stimulate the EAG response
C=CC(C)(O)CCC=C(C)C (centres unmarked) [Linalool],behavioral effect of plant volatile on P. xylostella (attractive / repellent),[1],Linalool ^b
CC(=O)CCC=C(C)C [Methyl heptenone],IC50,"[4]; PxylCSP9 1 μM, Bis-ANS 1 μM, 50 mM Tris-HCl pH 7.4, ligand concentration halving Bis-ANS fluorescence",20.1 ± 1.98 µM
same,Ki,[4]; calculated from IC50: Ki = [IC50]/(1 + [Bis-ANS]/KBis-ANS),17 µM
C=CC(=C)CCC=C(C)C [Myrcene],behavioral avoidance response of P. xylostella,[1],significantly induce its behavioral avoidance response
same,behavioral effect of plant volatile on P. xylostella (attractive / repellent),[1],Myrcene ^b
same,EAG response of P. xylostella,[3],effectively stimulate the EAG response
OCCc1ccccc1 [Phenethyl alcohol],EAG responses and attractive behaviors,[5],elicit electroantennogram (EAG) responses and attractive behaviors
same,behavioral effect of plant volatile on P. xylostella (attractive / repellent),[1],Phenethyl alcohol ^a
CC1=CC=C(C(C)C)CC1 [α-Terpinene],behavioral avoidance response of P. xylostella,[1],significantly induce its behavioral avoidance response
same,oviposition deterrent effects,[1],oviposition deterrent effects
same,behavioral effect of plant volatile on P. xylostella (attractive / repellent),[1],α-Terpinene ^b
same,EAG response of P. xylostella,[3],effectively stimulate the EAG response
